Measured values: patent US20200197392A1, “COMPOSITIONS AND METHODS FOR TREATING TUBEROUS SCLEROSIS COMPLEX” (THE BRIGHAM & WOMEN'S HOSPITAL, INC., priority 2017, published 2020)
Where two headings read alike, the source gives them in different places.

Key:
TSC-null cells [1] = test: Antioxidant rescue of THZ1-induced cell death (Trypan blue); assay type: cell-based; details: THZ1 30 nM, NAC 2 mM or GSH-MEE 2 mM, 48 hr
Source text: (§1) FIGS. 8A-8G. Reduction of glutathione and increase in ROS in THZ1-treated TSC null cells. […] Arrow indicates glutathione. (n=3 samples) (FIG. 8B) Heat map showing the top 15 metabolites with greatest change in 621.101.TSC2− cells, with comparison to control and similarly-treated 621.101.TSC2-addback cells (n=3 samples). The scale is log 2 fold-change. […] Each data point represents the mean±SEM of three independent experiments (** p<0.01; *** p<0.001). […] Each data point represents the mean±SEM of three independent experiments (* p<0.05; ** p<0.01; *** p<0.001). […] Phase contrast images are at top. Cell death (%) is shown at bottom for these treatments as well as RAP (rapamycin 20 nM) and NAC (2 mM) for HCV.29.TSC1− and 621-101.TSC2− after 48 hours of treatment, measured by Trypan blue staining. Each data point represents the mean±SEM of three independent experiments (* p<0.05; ** p<0.01; *** p<0.001).
FIGS. 9A-9C. […] (n=3 samples,*** p<0.0005). […] Each data point represents the mean±SEM of three independent experiments (** p<0.01; *** p<0.001). (FIG. 9C) Cell death of MEF.TSC2− after 48 hours of treatment with indicated compounds was measured via Trypan blue staining assay. Each data point represents the mean±SEM of three independent experiments (* p<0.05; *** p<0.001). […]

[2] = test system: 621-101 cells (TSC2 null angiomyolipoma cell line); test: 96-well plate proliferation assay (PicoGreen dsDNA); assay type: cell-based; details: 96 h; 621-101, 4 days; read-out: IC50, inhibition of proliferation
Experimental: (§2) FIG. 1. THZ1 selectively targets TSC-deficient cells. […] Cell viability was assessed after 4 days of treatment using Quant-it PicoGreen dsDNA. Data is represented as mean±SD.
(§3) Multiple studies were performed that support these hypotheses. Most studies to date have been performed on two pairs of cell lines: (i) HCV29, a TSC1 null human bladder cancer cell line, and a corresponding TSC1 addback derivative (TSC1-HCV29), and (ii) 621-101, a TSC2 null angiomyolipoma cell line, and the TSC2 addback derivative […].

[3] = test system: HCV29 cells (TSC1 null bladder cancer cell line); test: as above; assay type: cell-based; details: Homo sapiens, HCV-29, 96 h; HCV29, 4 days; read-out: IC50, inhibition of proliferation
Experimental: as §2, §3

HCV29 cells [4] = test: Cell cycle flow cytometry; assay type: cell-based, human; details: 30 nM, 24 h
TSC1-HCV29 cells [5] = test: Cell cycle flow cytometry; assay type: cell-based, human; details: 30 nM, 24 h
HCV29 cells [6] = test: Apoptosis by flow cytometry, propidium iodide and Annexin V; assay type: cell-based, human; details: 30 nM, 72 h
Source text: (§4) FIGS. 2A-2B. […] Apoptosis was monitored by flow cytometry using FITC-Annexin V. Each data point represents the mean±SEM of three independent experiments. *** p<0.001 (FIG. 2B) Immunoblot analyses of caspase-3 and actin.

TSC1-HCV29 cells [7] = test: as above; assay type: cell-based, human; details: 30 nM, 72 h
Source text: as §4

HCV29 cells [8] = test: ROS levels; assay type: cell-based, human; details: THZ1 30 nM, rapamycin 20 nM or both
HCV29 cells [9] = test: Steady state metabolite analysis; assay type: cell-based, human; details: 30 nM, 48 h
HCV29 cells [10] = test: RNA-Seq gene expression, HCV29 vs TSC1-HCV29; assay type: cell-based, human; details: 30 nM THZ1-treated HCV29 vs THZ1-treated TSC1-HCV29, 6 hours
Source text: However, the inventors focused on expression of all genes involved in the synthesis of reduced glutathione.

HCV29 xenograft tumors = HCV29 xenograft tumors in Foxn1nu mice (Example 1); assay type: in vivo; details: 10 mg/kg IP twice daily, 30 days
Source text: FIG. 3. […] Treatment groups are indicated. […] Caliper measurements were used to calculate tumor volume.
HCV29 xenograft tumors were induced in immune-deficient Foxn1^nu mice by injection of 10^7 cells into each flank. […] Tumor size was monitored using calipers.

TSC-null cell lines = test: 96 well plate growth assay, TSC-null cell lines; assay type: cell-based; details: 120 h, 6 cell line pairs, 5 days
Experimental: (§5) FIGS. 4A-4F. […] Cell number was calculated by measurement of dsDNA content using PicoGreen after 5 days in 96-well plate assays. Each data point represents the mean of 4 measurements. SEM are indicated. […] Apoptotic cell death was quantified by propidium iodide (PI) staining and flow cytometry, and is shown as the percentage of cells that were PI positive. Each data point represents the mean±SEM of three independent experiments. * p<0.05; ** p<0.01; *** p<0.001. […] Beta-actin serves as a loading control.
(§6) FIGS. 5A-5D. […] Beta-actin serves as a loading control. […] Apoptotic cells were quantified by propidium iodide (PI) staining and flow cytometry. Each data point represents the mean±SEM of three independent experiments. * p<0.05; ** p<0.01; *** p<0.001. […] Beta-actin serves as a loading control.

TSC-addback cell lines = test: 96 well plate growth assay, TSC-addback cell lines; assay type: cell-based; details: 120 h, 6 cell line pairs, 5 days
Experimental: as §5, §6

TSC null cells = test: NRF2, GCLC, GCLM, GSR protein expression; assay type: cell-based; details: 24 hours after THZ1 treatment
[11] = test system: kidney cystadenomas in Tsc2+/− A/J strain mice; details: THZ1 10 mg/kg IP twice a day 29 days; rapamycin 3 mg/kg 3 times per week
Source text: FIGS. 12A-12F. […] (FIG. 12A) Experimental plan. Tsc2+/− A/J strain mice develop kidney cystadenomas with 100% penetrance by 4 months of age with progressive tumor development. […] (FIG. 12B) Number of tumors per kidney in each treatment group (n=kidney number). ***p<0.001. (FIG. 12C) Tumor volume per kidney, with each data point corresponding to one kidney. (FIG. 12D) Renal cystadenoma histology in the treated mice. Representative tumor images are shown for each treatment cohort. Cystadenomas and tumors each are shown at 100×. […] (FIG. 12E) Ki-67 staining to assess cell proliferation in kidney sections from the treated mice. All images are at 100× magnification. Percentage of tumor cells with nuclear immunoreactivity of Ki-67 was scored from six random fields per section. ***p<0.001.
FIGS. 13A-13B. […]
Tsc2+/− A/J strain mice develop kidney cystadenomas by 4 months of age, and provide a native in vivo model that is […] human TSC patients, and is driven by spontaneous second hit events that lead to complete loss of Tsc2 expression and mTORC1 activation (Auricchio et al., 2012; Guo and Kwiatkowski, 2013; Woodrum et al., 2010). […] Rapamycin was dramatically effective in reducing tumor volume by about 99%, as assessed semi-quantitatively on H&E-stained sections (FIG. 12C), similar to what we have seen previously (Guo and Kwiatkowski, 2013). […]

[12] = test system: HCV.29-TSC1− xenograft tumors; test: HCV29-TSC1- xenograft model (Example 2); assay type: in vivo, mice; details: THZ1 10 mg/kg IP twice a day, rapamycin 3 mg/kg IP 3 days per week, or both
Experimental: FIGS. 14A-14D. […] Tumor size was measured every 3rd day using a digital caliper. […] This was quantified by counting four to six random fields per section. Scale bar=50 μm. **p<0.01, ***p<0.001. […] This was quantified by counting four to six random fields per section. Scale bar 50 μm. not shown (n=6) ***p<0.001. (FIG. 14D) Diagram showing glutathione synthetic pathway and ROS generation in TSC mutant cells. Top, TSC-deficient cells have hyperactive mTORC1, leading to increased ROS, NRF2 induction, and an increase in transcription of glutathione synthetic genes to yield more glutathione to buffer the increased ROS.
FIGS. 15A-15C. (FIG. 15A) Average body weight of TSC1-deficient HCV.29 xenograft mice in each treatment group. […] (n=4 tumors per group). ***p<0.001.
Tumor volumes were measured by calipers. […] Finally, in a cohort of xenograft mice, the treatments were discontinued and tumor growth was observed without intervention after the one month of treatment.

[13] = test system: tumors in a TSC mouse model; test: SY-1365 in a TSC mouse model; assay type: in vivo; details: tail vein injection 2×/week at 40 mg/kg for 4 weeks
Experimental: FIG. 16. Effect of SY-1365 on tumor volume in a TSC mouse model. SY-1365 was administered by tail vein injection 2×/week at 40 mg/kg for 4 weeks. Mice were then sacrificed and tumor assessment performed based on histology.

CDK7 [14] = target: T1, CDK7 (Homo sapiens, UniProt P50613); details: cited from earlier work
T1 sequence (P50613 whole entry): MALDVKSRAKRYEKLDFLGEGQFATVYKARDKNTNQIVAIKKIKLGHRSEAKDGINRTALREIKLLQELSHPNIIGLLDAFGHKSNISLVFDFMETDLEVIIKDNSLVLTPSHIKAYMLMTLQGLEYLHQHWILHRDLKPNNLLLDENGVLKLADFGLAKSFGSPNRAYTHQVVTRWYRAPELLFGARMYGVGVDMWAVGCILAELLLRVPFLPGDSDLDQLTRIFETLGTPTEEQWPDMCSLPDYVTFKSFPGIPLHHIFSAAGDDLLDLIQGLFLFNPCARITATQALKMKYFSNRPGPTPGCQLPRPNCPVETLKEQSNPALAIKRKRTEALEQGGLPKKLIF
T1 sequence (P51946 whole entry partner): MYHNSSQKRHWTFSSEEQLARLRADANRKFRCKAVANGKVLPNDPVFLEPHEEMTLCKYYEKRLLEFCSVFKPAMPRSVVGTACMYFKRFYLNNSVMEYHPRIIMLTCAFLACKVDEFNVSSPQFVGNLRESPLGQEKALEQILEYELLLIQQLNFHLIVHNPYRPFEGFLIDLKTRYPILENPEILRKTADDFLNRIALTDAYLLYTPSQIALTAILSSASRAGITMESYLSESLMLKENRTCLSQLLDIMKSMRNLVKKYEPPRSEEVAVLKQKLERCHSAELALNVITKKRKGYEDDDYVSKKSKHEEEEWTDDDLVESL
T1 sequence (P51948 whole entry partner): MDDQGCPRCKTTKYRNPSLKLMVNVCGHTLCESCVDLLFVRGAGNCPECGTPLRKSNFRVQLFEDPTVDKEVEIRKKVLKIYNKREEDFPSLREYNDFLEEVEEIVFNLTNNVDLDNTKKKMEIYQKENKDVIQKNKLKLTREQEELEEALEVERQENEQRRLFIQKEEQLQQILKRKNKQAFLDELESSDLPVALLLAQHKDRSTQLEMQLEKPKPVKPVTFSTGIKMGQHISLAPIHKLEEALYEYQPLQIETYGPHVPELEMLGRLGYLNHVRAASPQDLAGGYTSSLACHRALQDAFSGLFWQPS

CDK7 [15] = target: T1, CDK7; details: read-out: cellular IC50; cited from earlier work
[16] = compared to THZ1; cited from earlier work
HCV29 cells [17] = details: 30 nM THZ1, 1 mM GSH
TSC-null cells [18] = test: ROS levels in TSC-null cells; assay type: cell-based; details: NAC 2 mM + THZ1 30 nM, 48 hr
Source text: as §1
As GSH is the major intracellular antioxidant […], reactive oxygen species (ROS) were next measured in these cells.
In addition, to examine whether glutathione depletion was the proximate cause of apoptosis in THZ1-treated TSC-null cells, cells were treated with GSH reduced ethyl ester (GSH-MEE), a membrane-permeable derivative of GSH.

Structure (SMILES): CCOC(=O)CNC(=O)[C@H](CS)NC(=O)CC[C@H](N)C(=O)O [GSH-MEE, GSH reduced ethyl ester]
- cell death / viability of THZ1-treated TSC-null cells with co-treatment (TSC-null cells [1]): rescued the viability

Structure (SMILES): CN(C)C/C=C/C(=O)Nc1ccc(C(=O)Nc2cccc(Nc3ncc(Cl)c(-c4c[nH]c5ccccc45)n3)c2)cc1 [THZ1]
- IC50 [2]: ~30 nM
- IC50 [3]: ~30 nM
- cells arrested in G2/M-phase (HCV29 cells [4]): 21%
- cells arrested in G2/M-phase (TSC1-HCV29 cells [5]): 5.5%
- Annexin V+ cells (HCV29 cells [6]): 37%
- Annexin V+ cells (TSC1-HCV29 cells [7]): 2%
- ROS levels increase (HCV29 cells [8]): 2.5 fold
- Glutathione disulfide (GSS) levels reduced (HCV29 cells [9]): 65%
- S-adenosyl-L-homocysteine reduction in levels (HCV29 cells [9]): 87%
- glutathione (GSH) reduction in levels (HCV29 cells [9]): 78%
- GCLC mRNA levels reduction (HCV29 cells [10]): 82%
- GCLM mRNA levels reduction (HCV29 cells [10]): 68%
- GSR mRNA levels reduction (HCV29 cells [10]): 86%
- body weight and apparent toxicities (HCV29 xenograft tumors): did not affect body weight or cause other apparent toxicities
- IC50 (TSC-null cell lines; read-out: IC50 range, TSC-null cell lines): 16 to 39 nM
- IC50 (TSC-null cell lines; read-out: median IC50, TSC-null cell lines): 26.5 nM
- IC50 (TSC-addback cell lines; read-out: IC50 range, addback lines): 190 to 660 nM
- IC50 (TSC-addback cell lines; read-out: median IC50, addback lines): 475 nM
- reduction in expression of each protein (NRF2, GCLC, GCLM, GSR) (TSC null cells): > 90%
- reduction of tumor volume (semi-quantitative, H&E sections) [11]: about 99%
- body weight and toxicity [12]: No effect on body weight or other evidence of toxicity

Structure (SMILES): CN(C)C/C=C/C(=O)Nc1ccc(C(=O)N[C@@]2(C)CCC[C@@H](Nc3ncc(Cl)c(-c4c[nH]c5ccccc45)n3)C2)nc1 [SY-1365]
- reduction in tumor volume (semi-quantitative, histology) [13]: 99%
- selectivity for CDK7 over other CDKs (e.g., CDK9) (CDK7 [14]): high selectivity for CDK7 over other CDKs
- IC50 (CDK7 [14]; read-out: enzymatic IC50): ~22 nM
- IC50 (CDK7 [15]): ~20 nM
- pharmacokinetic properties [16]: improved pharmacokinetic properties compared to THZ1

Structure (SMILES): N[C@@H](CCC(=O)N[C@@H](CS)C(=O)NCC(=O)O)C(=O)O [GSH, glutathione]
- THZ1-induced HCV29 cell death with GSH co-treatment (HCV29 cells [17]): markedly reduced

Structure (SMILES): CO[C@H]1C[C@@H]2CC[C@@H](C)[C@@](O)(O2)C(=O)C(=O)N2CCCC[C@H]2C(=O)O[C@H]([C@H](C)C[C@@H]2CC[C@@H](O)[C@H](OC)C2)CC(=O)[C@H](C)/C=C(\C)[C@@H](O)[C@@H](OC)C(=O)[C@H](C)C[C@H](C)/C=C/C=C/C=C/1C [rapamycin]
- reduction of tumor volume (semi-quantitative, H&E sections) [11]: about 99%
- body weight and toxicity [12]: No effect on body weight or other evidence of toxicity

Structure (SMILES): CC(=O)N[C@@H](CS)C(=O)O [NAC, N-acetyl-cysteine]
- ROS levels in THZ1 treated TSC-null cells with antioxidant (TSC-null cells [18]): restored ROS levels to near baseline
- cell death / viability of THZ1-treated TSC-null cells with co-treatment (TSC-null cells [1]): significantly reduced the cell death
